Test results from patent US20230111914A1, “SYNTHETIC TRITERPENOIDS WITH NITROGEN-BASED SUBSTITUENTS AT C-17 AND METHODS OF USE THEREOF” (REATA PHARMACEUTICALS, INC., priority 2019, published 2023).
Where “and” joins values, the source holds several entries; their conditions need not be identical. Equal entries are not always repeated. Where two headings read alike, the source gives them in different places. Marks after values point to notes of the source that are not given here.

Tests used:
[1] = tested on: IFNγ-induced NO production in RAW 264.7 cells; assay: Nitric oxide suppression assay (IFNγ-induced NO production, Griess nitrite readout); assay type: cell-based, mouse; conditions: for IC50: Mus musculus
[2] = tested on: AREc32 reporter cell line (luciferase reporter under eight copies of the rat GSTA2 ARE sequence); assay: AREc32 luciferase reporter activation; assay type: cell-based, human; conditions: for EC (2-fold): Homo sapiens, read-out: AREc32 EC2X (Mean ± SD)
[3] = RAW264.7, RAW 264.7 cells, 2 h pretreatment, 20 ng/mL interferon gamma 24 h, average of trials per footnote, read-out: NO IC50
[4] = Arec32, concentration that increases the luminescence signal 2-fold above vehicle, 19 h treatment

Row | Structure (SMILES) | NO IC50 Rel. to RTA 402 [1] | IC50 [1, 3] | AREc32 EC2X Relative to RTA 402 (Mean ± SD) [2] | EC (2-fold) [2, 4] | AREc32 Relative to CC in Same Experiment (Mean ± SD) ([2]; comparison compound CC4, average of ratios from three replicate experiments) | times more active (NO IC50) than 63189 relative to RTA 402 [1] | IC50 ([1]; RAW264.7, read-out: NO IC50) | EC (2-fold) ([2]; Arec32, 19 h)
1 | Cc1cc(C)n(C[C@]23CCC(C)(C)C[C@H]2[C@H]2C(=O)C=C4[C@@]5(C)C=C(C#N)C(=O)C(C)(C)[C@@H]5CC[C@@]4(C)[C@]2(C)CC3)n1 [Compound T22] | 5.29 ± 1.29^d fold | 9.18 ± 1.72 nM | 3.7^e fold | 0.0445 µM | – | – | – | –
2 | CC1(C)CC[C@]2(CN3CC4(COC4)C3)CC[C@]3(C)[C@H](C(=O)C=C4[C@@]5(C)C=C(C#N)C(=O)C(C)(C)[C@@H]5CC[C@]43C)[C@@H]2C1 [Compound T23] | 2.01 ± 0.53^e fold | 4.16 ± 1.19 nM | 1.9^e fold | 0.0185 µM | – | – | – | –
3 | CC1(C)CC[C@]2(N3CCCC3=O)CC[C@]3(C)[C@H](C(=O)C=C4[C@@]5(C)C=C(C#N)C(=O)C(C)(C)[C@@H]5CC[C@]43C)[C@@H]2C1 [Compound T24] | 2.17 ± 0.72^e fold | 3.6 ± 0.08 nM | 3.8^e fold | 0.0379 µM | – | – | – | –
4 | CC1(C)CC[C@]2(CN3CCC3)CC[C@]3(C)[C@H](C(=O)C=C4[C@@]5(C)C=C(C#N)C(=O)C(C)(C)[C@@H]5CC[C@]43C)[C@@H]2C1 [Compound T25] | 1.21 ± 0.45^e fold | 2.5 ± 0.92 nM | 1.5^e fold | 0.022 µM | – | – | – | –
5 | CC1(C)CC[C@]2(CN3CC(F)C3)CC[C@]3(C)[C@H](C(=O)C=C4[C@@]5(C)C=C(C#N)C(=O)C(C)(C)[C@@H]5CC[C@]43C)[C@@H]2C1 [Compound T26] | 2.73 ± 1.01^e fold | 5.61 ± 1.84 nM | 1.6^e fold | 0.0236 µM | – | – | – | –
6 | CC1(C)CC[C@]2(CN3CC(F)(F)C3)CC[C@]3(C)[C@H](C(=O)C=C4[C@@]5(C)C=C(C#N)C(=O)C(C)(C)[C@@H]5CC[C@]43C)[C@@H]2C1 [Compound T27] | 8.68 ± 2.12^e fold | 17.8 ± 1.79 nM | 1.8^e fold | 0.0266 µM | – | – | – | –
7 | CC1(C)CC[C@]2(CN3CC(O)C3)CC[C@]3(C)[C@H](C(=O)C=C4[C@@]5(C)C=C(C#N)C(=O)C(C)(C)[C@@H]5CC[C@]43C)[C@@H]2C1 [Compound T28] | 1.09 ± 0.16^e fold | 2.83 ± 0.92 nM | 0.9 ± 0.12^a fold | 0.0139 ± 0.00157 µM | – | – | – | –
8 | CC1(C)CC[C@]2(CN3CC(=O)C3)CC[C@]3(C)[C@H](C(=O)C=C4[C@@]5(C)C=C(C#N)C(=O)C(C)(C)[C@@H]5CC[C@]43C)[C@@H]2C1 [Compound T29] | 1.49 ± 0.30^d fold | 6.09 ± 1.46 nM | 1.2^e fold | 0.0133 µM | – | – | – | –
9 | CN1CCN([C@]23CCC(C)(C)C[C@H]2[C@H]2C(=O)C=C4[C@@]5(C)C=C(C#N)C(=O)C(C)(C)[C@@H]5CC[C@@]4(C)[C@]2(C)CC3)C1=O [Compound T31] | 3.13 ± 0.36^d fold | 12.6 ± 1.65 nM | 4.3^e fold | 0.0455 µM | – | – | – | –
10 | CC1(C)CC[C@]2(n3cccn3)CC[C@]3(C)[C@H](C(=O)C=C4[C@@]5(C)C=C(C#N)C(=O)C(C)(C)[C@@H]5CC[C@]43C)[C@@H]2C1 [Compound T32] | 2.58 ± 0.60^e fold | 4.89 ± 1.42 nM | 2.8 ± 0.62^f fold | 0.0323 ± 0.00139 µM | – | – | – | –
11 | CC1(C)CC[C@]2(N3CCOC3=O)CC[C@]3(C)[C@H](C(=O)C=C4[C@@]5(C)C=C(C#N)C(=O)C(C)(C)[C@@H]5CC[C@]43C)[C@@H]2C1 [Compound T34] | 1.23 ± 0.23^e fold | 2.23 ± 0.57 nM | 2.2^e fold | 0.0236 µM | – | – | – | –
12 | CC1(C)CC[C@]2(N3CCC3=O)CC[C@]3(C)[C@H](C(=O)C=C4[C@@]5(C)C=C(C#N)C(=O)C(C)(C)[C@@H]5CC[C@]43C)[C@@H]2C1 [Compound T38] | 1.69 ± 0.84^e fold | 4.32 ± 3.51 nM | 2.1^e fold | 0.0361 µM | – | – | – | –
13 | CC1(C)CC[C@]2(n3cnnc3)CC[C@]3(C)[C@H](C(=O)C=C4[C@@]5(C)C=C(C#N)C(=O)C(C)(C)[C@@H]5CC[C@]43C)[C@@H]2C1 [Compound T39] | 42.82 ± 14.24^e fold | 84.5 ± 18.9 nM | 9.8 ± 1.1^a fold | 0.0943 ± 0.00426 µM | – | – | – | –
14 | CC1(C)CC[C@]2(n3ccoc3=O)CC[C@]3(C)[C@H](C(=O)C=C4[C@@]5(C)C=C(C#N)C(=O)C(C)(C)[C@@H]5CC[C@]43C)[C@@H]2C1 [Compound T40] | 1.37 ± 0.18^d fold | 5.56 ± 0.72 nM | 1.8^e fold | 0.0196 µM | – | – | – | –
15 | CC1(C)CC[C@]2(n3cc(CO)nn3)CC[C@]3(C)[C@H](C(=O)C=C4[C@@]5(C)C=C(C#N)C(=O)C(C)(C)[C@@H]5CC[C@]43C)[C@@H]2C1 [Compound T42] | 2.97 ± 0.47^d fold | 12.4 ± 3.92 nM | 1.3 ± 0.34^f fold | 0.0148 ± 0.00277 µM | 0.490 ± 0.057 | – | – | –
16 | Cn1ccn([C@]23CCC(C)(C)C[C@H]2[C@H]2C(=O)C=C4[C@@]5(C)C=C(C#N)C(=O)C(C)(C)[C@@H]5CC[C@@]4(C)[C@]2(C)CC3)c1=O [Compound T46] | 2.62 ± 0.10^d fold | 10.7 ± 1.35 nM | 3.0^e fold | 0.0316 µM | – | – | – | –
17 | CC1(C)CC[C@]2(CN3CCOC3)CC[C@]3(C)[C@H](C(=O)C=C4[C@@]5(C)C=C(C#N)C(=O)C(C)(C)[C@@H]5CC[C@]43C)[C@@H]2C1 [Compound T47] | 7.54 ± 2.47^d fold | 17.3 ± 8.55 nM | 8.6^e fold | 0.122 µM | – | – | – | –
18 | CC1(C)CC[C@]2(Cn3cnnc3)CC[C@]3(C)[C@H](C(=O)C=C4[C@@]5(C)C=C(C#N)C(=O)C(C)(C)[C@@H]5CC[C@]43C)[C@@H]2C1 [Compound T49] | 13.72 ± 3.47^e fold | 26.9 ± 10.5 nM | 4.5^e fold | 0.0389 µM | – | – | – | –
19 | CC1(C)CC[C@]2(CN3NCCC3=O)CC[C@]3(C)[C@H](C(=O)C=C4[C@@]5(C)C=C(C#N)C(=O)C(C)(C)[C@@H]5CC[C@]43C)[C@@H]2C1 [Compound T51] | 2.04 ± 0.73^d fold | 8.55 ± 3.65 nM | 1.1^e fold | 0.0117 µM | – | – | – | –
20 | [2H]C([2H])([2H])C(=O)NC[C@]12CCC(C)(C)C[C@H]1[C@H]1C(=O)C=C3[C@@]4(C)C=C(C#N)C(=O)C(C)(C)[C@@H]4CC[C@@]3(C)[C@]1(C)CC2 [Compound T52] | 0.28 ± 0.13^e fold | 0.52 ± 0.24 nM | 0.3^e fold | 0.003 µM | – | – | – | –
21 | CCC(=O)NC[C@]12CCC(C)(C)C[C@H]1[C@H]1C(=O)C=C3[C@@]4(C)C=C(C#N)C(=O)C(C)(C)[C@@H]4CC[C@@]3(C)[C@]1(C)CC2 [Compound T53] | 0.21 fold and 0.21 ± 0.05^e fold | 0.38 nM | 0.2^e fold | 0.0024 µM | – | more than 19 times | – | –
22 | CC1(C)CC[C@]2(NNC(=O)C(F)(F)F)CC[C@]3(C)[C@H](C(=O)C=C4[C@@]5(C)C=C(C#N)C(=O)C(C)(C)[C@@H]5CC[C@]43C)[C@@H]2C1 [Compound T56] | 1.70 ± 0.32^d fold | 7.04 ± 1.91 nM | 1.5^e fold | 0.0155 µM | – | – | – | –
23 | CC1(C)CC[C@]2(N3CCC(=O)N3)CC[C@]3(C)[C@H](C(=O)C=C4[C@@]5(C)C=C(C#N)C(=O)C(C)(C)[C@@H]5CC[C@]43C)[C@@H]2C1 [Compound T58] | 2.97 ± 0.65^d fold | 12.2 ± 3.32 nM | 5.3^e fold | 0.0565 µM | – | – | – | –
24 | CC1(C)CC[C@]2(CNC(=O)C(C)(F)F)CC[C@]3(C)[C@H](C(=O)C=C4[C@@]5(C)C=C(C#N)C(=O)C(C)(C)[C@@H]5CC[C@]43C)[C@@H]2C1 [Compound T62] | 0.51 ± 0.18^d fold | 2.12 ± 0.85 nM | 0.3^e fold | 0.0035 µM | – | – | – | –
25 | CC1(C)CC[C@]2(CNC(=O)C(F)F)CC[C@]3(C)[C@H](C(=O)C=C4[C@@]5(C)C=C(C#N)C(=O)C(C)(C)[C@@H]5CC[C@]43C)[C@@H]2C1 [Compound T63] | 0.36 ± 0.11^d fold | 1.48 ± 0.54 nM | 0.4^e fold | 0.004 µM | – | – | – | –
26 | C[C@@H]1C(=O)C(C#N)=C[C@]2(C)C3=CC(=O)[C@@H]4[C@@H]5CC(C)(C)CC[C@]5(CN5CCC5=O)CC[C@@]4(C)[C@]3(C)CC[C@@H]12 [Compound T65] | 0.36 ± 0.12^e fold | 0.42 ± 0.13 nM | 0.4^e fold | 0.0047 µM | – | – | – | –
27 | C[C@@H]1C(=O)C(C#N)=C[C@]2(C)C3=CC(=O)[C@@H]4[C@@H]5CC(C)(C)CC[C@]5(CN5CCCC5=O)CC[C@@]4(C)[C@]3(C)CC[C@@H]12 [Compound T66] | 0.39 ± 0.09^e fold | 0.45 ± 0.09 nM | 0.4^e fold | 0.0046 µM | – | – | – | –
28 | CC1(C)CC[C@]2(CNC(=O)CF)CC[C@]3(C)[C@H](C(=O)C=C4[C@@]5(C)C=C(C#N)C(=O)C(C)(C)[C@@H]5CC[C@]43C)[C@@H]2C1 [Compound T67] | 0.38 ± 0.15^d fold | – | 0.3^e fold | – | – | – | 0.51 ± 0.31 nM | 0.0033 µM
